Blank lines part the entries; values can stand above or below the molecule they belong to. Numbered stars: 1 amine (or outer) side, 2 acyl side, 3 side chain; on linkers, the order of the positions; unused ones are H or OH. Bridge positions count the residues as written; N and C are the ends. Side chains are listed from the residue outwards. Peptide text beside a SMILES is read from it. * marks the point of attachment. C20 diacid = O=C(O)CCCCCCCCCCCCCCCCCCC(=O)*; γGlu = O=C(O)[C@H](CCC(=O)[*:2])N[*:1]
What was measured:
[1] = molecular target: T1, human amylin 3(a) receptor (human calcitonin receptor + RAMP-3) in BHK570 cells (Homo sapiens, UniProt O60896+P30988); test: ASSAY (II)a functional assay, human amylin receptor (CRE luciferase); format: cell-based; conditions: for EC50: human amylin receptor functional potency, assay (II), read-out: hAmylin-R funct. EC50
T1 construct: expressed in transfected cells
How it was run: (§1)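 Ligand exposure 3 h at 37 °C, 5% CO2 in DMEM with 10% FBS, 10 mM Hepes pH 7.4. cAMP-driven luciferase read by luminescence after 30 min LucLite at room temperature.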

[2] = molecular target: T2, human calcitonin (a) receptor in BHK570 cells (Homo sapiens, UniProt P30988); test: ASSAY (II)a functional assay, human calcitonin receptor (CRE luciferase); format: cell-based; conditions: read-out: hCTR funct. EC50
T2 construct: expressed in transfected cells
T2 sequence (P30988 25-474): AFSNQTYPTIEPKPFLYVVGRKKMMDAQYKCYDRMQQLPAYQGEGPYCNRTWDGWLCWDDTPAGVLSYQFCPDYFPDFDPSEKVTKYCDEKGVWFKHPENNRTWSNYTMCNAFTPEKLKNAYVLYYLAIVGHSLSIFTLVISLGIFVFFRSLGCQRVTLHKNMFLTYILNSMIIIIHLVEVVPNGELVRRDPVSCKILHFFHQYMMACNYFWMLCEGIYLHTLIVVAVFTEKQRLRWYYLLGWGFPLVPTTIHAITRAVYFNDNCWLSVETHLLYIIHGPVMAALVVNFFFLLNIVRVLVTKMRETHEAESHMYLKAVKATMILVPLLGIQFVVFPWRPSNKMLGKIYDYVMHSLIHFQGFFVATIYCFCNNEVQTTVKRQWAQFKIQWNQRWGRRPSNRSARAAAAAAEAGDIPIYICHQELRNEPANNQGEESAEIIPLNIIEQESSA
How it was run: as §1

[3] = ASSAY (III) ThT fibrillation assay for physical stability; format: physicochemical
How it was run: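 Formulations with 1 μM ThT, pH adjusted as required, incubated at 37 °C with 960 rpm orbital shaking; fluorescence (ex 444/em 485 nm) read every 20 min. Fibrillation reported as mean ThT fluorescence ± SD of 4–8 replicates at time points; polypeptide concentration measured by reverse-phase HPLC before and after, post-centrifugation.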

[4] = molecular target: T3, human calcitonin receptor (Homo sapiens, UniProt P30988); test: ASSAY (VII) binding to the human calcitonin receptor (SPA, 125I-Calcitonin); conditions: read-out: hCTR bind IC50;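 also: cell membranes (35 ng/µL) combined with SPA beads in 40 µL of pH 7.4 Hepes buffer, 384-well format, signal counted on a TopCounter instrument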
T3 construct: expressed in transfected cells
T3 sequence (P30988 25-474): T2 sequence (P30988 25-474)

[5] = ASSAY (X) pK, determination of T½ in rat; format: in vivo; conditions: male, Sprague Dawley, plasma, iv, 20 nmol/kg
[6] = hCTR funct. EC50 divided by hAmylin-R funct. EC50
[7] = hCTR funct. EC50 over hAmylin-R funct. EC50
[8] = human functional selectivity: hCTR funct. EC50 / hAmylin-R funct. EC50

T1 sequence (O60896 24-148, one chain of several): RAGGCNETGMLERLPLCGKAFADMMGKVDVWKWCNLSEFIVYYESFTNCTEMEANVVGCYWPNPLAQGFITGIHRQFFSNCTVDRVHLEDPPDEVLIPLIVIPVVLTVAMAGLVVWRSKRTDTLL

Structure (SMILES): CC[C@H](C)[C@H](NC(=O)[C@H](C)NC(=O)CNC(=O)[C@H](Cc1ccccc1)NC(=O)[C@H](CC(N)=O)NC(=O)[C@@H]1CCCN1C(=O)[C@H](CO)NC(=O)[C@H](CO)NC(=O)[C@H](Cc1c[nH]cn1)NC(=O)[C@H](CCCNC(=N)N)NC(=O)[C@H](CC(C)C)NC(=O)[C@H](Cc1ccccc1)NC(=O)[C@H](CCC(=O)O)NC(=O)[C@H](C)NC(=O)[C@H](CC(C)C)NC(=O)[C@H](CCCNC(=N)N)NC(=O)[C@H](CCC(N)=O)NC(=O)[C@@H](NC(=O)[C@H](C)NC(=O)[C@@H]1CSSC[C@H](NC(=O)[C@@H](N)CCCCNC(=O)CC[C@H](NC(=O)CC[C@H](NC(=O)CCCCCCCCCCCCCCCCCCC(=O)O)C(=O)O)C(=O)O)C(=O)N[C@@H](CC(N)=O)C(=O)N[C@@H]([C@@H](C)O)C(=O)N[C@@H](C)C(=O)N[C@@H]([C@@H](C)O)C(=O)N1)[C@@H](C)O)C(=O)N1CCC[C@H]1C(=O)N[C@@H](CO)C(=O)N[C@@H](CO)C(=O)N[C@H](C(=O)N[C@@H](CC(N)=O)C(=O)N[C@H](C(=O)NCC(=O)N[C@@H](CO)C(=O)N[C@@H](CCCNC(=N)N)C(=O)N[C@H](C(=O)N[C@@H](Cc1ccc(O)cc1)C(N)=O)[C@@H](C)O)C(C)C)[C@@H](C)O [Example 89] (H-K([γGlu-γGlu-C20 diacid])CNTATCATQRLAEFLRHSSPNFGAIPSSTNVGSRTY-NH2; disulfide 2-7 (inferred); N-terminus assumed)
Ratio hCT/hAmylin funct. [1, 6]: 27.8
Ratio hCT/hAmylin funct. [1, 7]: 27.8
EC50 [1]: 0.404 nM
Ratio hCT/hAmylin funct. [1, 8]: 27.8
EC50 [2]: 11.2 nM
ThT pH 4.0 lag time (h) [3]: 43 h
IC50 [4]: 32.5 nM
half-life [5]: 1380 min

Structure (SMILES): CC[C@H](C)[C@H](NC(=O)[C@H](C)NC(=O)CNC(=O)[C@H](Cc1ccccc1)NC(=O)[C@H](CC(N)=O)NC(=O)[C@@H]1CCCN1C(=O)[C@H](CO)NC(=O)[C@H](CO)NC(=O)[C@H](Cc1c[nH]cn1)NC(=O)[C@H](CCCNC(=N)N)NC(=O)[C@H](CC(C)C)NC(=O)[C@H](Cc1ccccc1)NC(=O)[C@H](CC(N)=O)NC(=O)[C@H](C)NC(=O)[C@H](CC(C)C)NC(=O)[C@H](CCCNC(=N)N)NC(=O)[C@H](CCC(N)=O)NC(=O)[C@@H](NC(=O)[C@H](C)NC(=O)[C@@H]1CSSC[C@H](NC(=O)[C@@H](N)CCCCNC(=O)CC[C@H](NC(=O)CC[C@H](NC(=O)CCCCCCCCCCCCCCCCCCC(=O)O)C(=O)O)C(=O)O)C(=O)N[C@@H](CC(N)=O)C(=O)N[C@@H]([C@@H](C)O)C(=O)N[C@@H](C)C(=O)N[C@@H]([C@@H](C)O)C(=O)N1)[C@@H](C)O)C(=O)N1CCC[C@H]1C(=O)N[C@@H](CO)C(=O)N[C@@H](CO)C(=O)N[C@H](C(=O)N[C@@H](CC(N)=O)C(=O)N[C@H](C(=O)NCC(=O)N[C@@H](Cc1c[nH]cn1)C(=O)N[C@@H](CC(N)=O)C(=O)N[C@H](C(=O)N[C@@H](Cc1ccc(O)cc1)C(N)=O)[C@@H](C)O)C(C)C)[C@@H](C)O [Example 86] (H-K([γGlu-γGlu-C20 diacid])CNTATCATQRLANFLRHSSPNFGAIPSSTNVGHNTY-NH2; disulfide 2-7)
Ratio hCT/hAmylin funct. [1, 6]: 64.4
Ratio hCT/hAmylin funct. [1, 7]: 64.4
EC50 [1]: 0.298 nM
Ratio hCT/hAmylin funct. [1, 8]: 64.4
EC50 [2]: 19.2 nM
ThT pH 4.0 lag time (h) [3]: 32 h
IC50 [4]: 133 nM
half-life [5]: 1200 min

Structure (SMILES): CC[C@H](C)[C@H](NC(=O)[C@H](C)NC(=O)CNC(=O)[C@H](Cc1ccccc1)NC(=O)[C@H](CC(N)=O)NC(=O)[C@@H]1CCCN1C(=O)[C@H](CO)NC(=O)[C@H](CO)NC(=O)[C@H](Cc1c[nH]cn1)NC(=O)[C@H](CCCNC(=N)N)NC(=O)[C@H](CC(C)C)NC(=O)[C@H](Cc1ccccc1)NC(=O)[C@H](CC(=O)O)NC(=O)[C@H](C)NC(=O)[C@H](CC(C)C)NC(=O)[C@H](CCCNC(=N)N)NC(=O)[C@H](CCC(N)=O)NC(=O)[C@@H](NC(=O)[C@H](C)NC(=O)[C@@H]1CSSC[C@H](NC(=O)[C@@H](N)CCCCNC(=O)CC[C@H](NC(=O)CC[C@H](NC(=O)CCCCCCCCCCCCCCCCCCC(=O)O)C(=O)O)C(=O)O)C(=O)N[C@@H](CC(N)=O)C(=O)N[C@@H]([C@@H](C)O)C(=O)N[C@@H](C)C(=O)N[C@@H]([C@@H](C)O)C(=O)N1)[C@@H](C)O)C(=O)N1CCC[C@H]1C(=O)N[C@@H](CO)C(=O)N[C@@H](CO)C(=O)N[C@H](C(=O)N[C@@H](CC(N)=O)C(=O)N[C@H](C(=O)NCC(=O)N[C@@H](CO)C(=O)N[C@@H](CCCNC(=N)N)C(=O)N[C@H](C(=O)N[C@@H](Cc1ccc(O)cc1)C(N)=O)[C@@H](C)O)C(C)C)[C@@H](C)O [Example 52, N-ε-1-{(S)-4-carboxy-4-[(S)-4-carboxy-4-(19-carboxynonadecanoylamino)butyrylamino]butyryl}-[Asp14,Arg17,Pro21,Pro27,Arg35]-human amylin]
Ratio hCT/hAmylin funct. [1, 6]: 41.4
Ratio hCT/hAmylin funct. [1, 7]: 41.4
Ratio hCT/hAmylin funct. [1, 8]: 41.4
ThT pH 4.0 lag time (h) [3]: 41 h
half-life [5]: 1260 min

Other lines, results leading:

Ratio hCT/hAmylin funct. [1, 6]: 10.5
Ratio hCT/hAmylin funct. [1, 7]: 10.5
EC50 [1]: 0.225 nM
Ratio hCT/hAmylin funct. [1, 8]: 10.5
EC50 [2]: 2.36 nM
ThT pH 4.0 lag time (h) [3]: 33 h
IC50 [4]: 2.14 nM
half-life [5]: 2220 min
Structure (SMILES): CC[C@H](C)[C@H](NC(=O)[C@H](C)NC(=O)CNC(=O)[C@H](Cc1ccccc1)NC(=O)[C@H](CC(N)=O)NC(=O)[C@@H]1CCCN1C(=O)[C@H](CO)NC(=O)[C@H](CO)NC(=O)[C@H](Cc1c[nH]cn1)NC(=O)[C@H](CCCNC(=N)N)NC(=O)[C@H](CC(C)C)NC(=O)[C@H](Cc1ccccc1)NC(=O)[C@H](CCC(=O)O)NC(=O)[C@H](C)NC(=O)[C@H](CC(C)C)NC(=O)[C@H](CCCNC(=N)N)NC(=O)[C@H](CCC(N)=O)NC(=O)[C@@H](NC(=O)[C@H](C)NC(=O)[C@@H]1CSSC[C@H](NC(=O)[C@@H](N)CCCCNC(=O)CC[C@H](NC(=O)CC[C@H](NC(=O)CCCCCCCCCCCCCCCCCCC(=O)O)C(=O)O)C(=O)O)C(=O)N[C@@H](CC(N)=O)C(=O)N[C@@H]([C@@H](C)O)C(=O)N[C@@H](C)C(=O)N[C@@H]([C@@H](C)O)C(=O)N1)[C@@H](C)O)C(=O)N1CCC[C@H]1C(=O)N[C@@H](CO)C(=O)N[C@@H](CO)C(=O)N[C@H](C(=O)N[C@@H](CC(N)=O)C(=O)N[C@H](C(=O)NCC(=O)N1CCC[C@H]1C(=O)N[C@@H](CCC(=O)O)C(=O)N[C@H](C(=O)N[C@@H](Cc1ccc(O)cc1)C(N)=O)[C@@H](C)O)C(C)C)[C@@H](C)O [Example 106] (H-K([γGlu-γGlu-C20 diacid])CNTATCATQRLAEFLRHSSPNFGAIPSSTNVGPETY-NH2; disulfide 2-7; N-terminus assumed)

Ratio hCT/hAmylin funct. [1, 6]: 29.3
Ratio hCT/hAmylin funct. [1, 7]: 29.3
EC50 [1]: 0.278 nM
Ratio hCT/hAmylin funct. [1, 8]: 29.3
EC50 [2]: 8.16 nM
ThT pH 4.0 lag time (h) [3]: 17 h
IC50 [4]: 17.5 nM
half-life [5]: 840 min
Structure (SMILES): CC[C@H](C)[C@H](NC(=O)[C@H](C)NC(=O)CNC(=O)[C@H](Cc1ccccc1)NC(=O)[C@H](CC(N)=O)NC(=O)[C@@H]1CCCN1C(=O)[C@H](CO)NC(=O)[C@H](CO)NC(=O)[C@H](Cc1c[nH]cn1)NC(=O)[C@H](CCCNC(=N)N)NC(=O)[C@H](CC(C)C)NC(=O)[C@H](Cc1ccccc1)NC(=O)[C@H](CCC(=O)O)NC(=O)[C@H](C)NC(=O)[C@H](CC(C)C)NC(=O)[C@H](CCCNC(=N)N)NC(=O)[C@H](CCC(N)=O)NC(=O)[C@@H](NC(=O)[C@H](C)NC(=O)[C@@H]1CSSC[C@H](NC(=O)[C@@H](N)CCCCNC(=O)CC[C@H](NC(=O)CC[C@H](NC(=O)CCCCCCCCCCCCCCCCCCC(=O)O)C(=O)O)C(=O)O)C(=O)N[C@@H](CC(N)=O)C(=O)N[C@@H]([C@@H](C)O)C(=O)N[C@@H](C)C(=O)N[C@@H]([C@@H](C)O)C(=O)N1)[C@@H](C)O)C(=O)N1CCC[C@H]1C(=O)N[C@@H](CO)C(=O)N[C@@H](CO)C(=O)N[C@H](C(=O)N[C@@H](CC(N)=O)C(=O)N[C@H](C(=O)NCC(=O)N1CCC[C@H]1C(=O)N[C@@H](CCCNC(=N)N)C(=O)N[C@H](C(=O)N[C@@H](Cc1ccc(O)cc1)C(N)=O)[C@@H](C)O)C(C)C)[C@@H](C)O [Example 110] (H-K([γGlu-γGlu-C20 diacid])CNTATCATQRLAEFLRHSSPNFGAIPSSTNVGPRTY-NH2; disulfide 2-7)

— patent publication US9023789B2, “Amylin analogs and pharmaceutical compositions thereof” (Novo Nordisk A/S, priority 2012, dated 2015)
